Experimental data: US7947302B2, “Antithrombotic coating for drug eluting medical devices” (Cordis Corporation, priority 2005, dated 2011)

Key:
[1] = tested on: human coronary artery smooth muscle cell; experiment: In vitro cell culture study of coronary artery smooth muscle cell proliferation (trichostatin A); assay type: cell-based
Excerpt: FIG. 51 is a graph of the inhibition of coronary artery smooth muscle cells by trichostatin A in a cell culture study.

tumor cell lines = settings: cited from earlier work
[2] = tested on: human coronary artery smooth muscle cells; experiment: Anti-proliferative activity in synchronized cultured cells, two percent fetal bovine serum (FIG. 64-68); assay type: cell-based
Excerpt: (§1) The multiple curves represent various concentrations of topotecan ranging from zero to three hundred nanomolar concentrations.
(§2) The multiple curves represent various concentrations of etoposide ranging from zero to eight hundred nanomolar concentrations.
Referring to FIG. 66, there is illustrated, in graphical format, the anti-proliferative activity of Panzem® in synchronized cultured human coronary artery smooth muscle cells stimulated with two percent fetal bovine serum.
The multiple curves represent various concentrations of Panzem® ranging from zero to 100 micromolar concentrations.

cell viability = experiment: Cell viability assay; assay type: cell-based
Excerpt: as §1, §2

[3] = tested on: human coronary artery smooth muscle cells; experiment: Anti-proliferative activity in non-synchronized cultured cells, two percent fetal bovine serum (FIG. 57, 58); assay type: cell-based
Excerpt: FIG. 58 illustrates, in graphical format, the anti-proliferative activity of cladribine in non-synchronized cultured human coronary artery smooth muscle cells stimulated with two percent fetal bovine serum.
The multiple curves represent various concentrations of cladribine ranging from zero to nine hundred nanomolar concentrations.

[4] = In vivo release kinetics of cladribine from PVDF/HFP coating on Bx Velocity stents (FIG. 61); set-up: species or system Yorkshire pig; settings: 1800 micrograms basecoat, thirty percent cladribine, 300 micrograms topcoat
Excerpt: FIG. 61 is a graphical representation of the in vivo release kinetics of cladribine from a polymeric coating on BxVelocity® stents, available from Cordis Corporation, implanted in a Yorkshire pig. The basecoat comprises an 85/15 ratio of PVDF and HFP and cladribine for a total combined weight of one thousand eight hundred micrograms (cladribine comprising thirty percent of the total weight). The topcoat comprises an 85/15 ratio of PVDF/HFP and no cladribine. The total weight of the topcoat is three hundred micrograms.

[5] = In vivo release kinetics from rapamycin/cladribine EVA/BMA basecoat, porcine pharmacokinetics studies (FIG. 62, 63); set-up: species or system Yorkshire pigs; settings: comparison of FIG. 63 with FIG. 62
Excerpt: The basecoat is applied to Bx Velocity® stents and implanted into Yorkshire pigs.
The basecoat is applied to BxVelocity® stents and implanted into Yorkshire pigs.

[6] = tested on: human coronary artery smooth muscle cells; experiment: Anti-proliferative activity of rapamycin with mycophenolic acid, non-synchronized cells, two percent fetal bovine serum (FIG. 52); assay type: cell-based; settings: mycophenolic acid zero to one thousand nanomolar; leftward and upward shift
Excerpt: The multiple curves represent various concentrations of mycophenolic acid ranging from zero to one thousand nanomolar concentrations. […] This potentiation observed in cultured coronary artery smooth muscle cells preferably translates to an enhancement in anti-restenotic efficacy following vascular injury and a reduction in the required amount of either agent to achieve the desired anti-restenotic effect.

[7] = In vivo release kinetics from rapamycin/mycophenolic acid EVA/BMA basecoat, porcine pharmacokinetics studies (FIG. 53, 54); settings: 180 micrograms rapamycin, 180 micrograms mycophenolic acid, 240 micrograms EVA/BMA; none, 100 or 200 micrograms BMA topcoat
[8] = tested on: human coronary artery smooth muscle cell; experiment: MTS cytotoxicity assay (FIG. 69); assay type: cell-based; settings: concentrations up to 30,000.00 nanomolar (6.6 to 30,000.00 nanomolar tested)
Excerpt: Typically, a control is utilized to determine baseline toxicity.

[9] = In vivo release kinetics from rapamycin/mycophenolic acid PVDF basecoat with PVDF topcoat, porcine pharmacokinetics studies (FIG. 56); settings: 600 micrograms basecoat, 200 micrograms topcoat
Excerpt: The topcoat is two hundred micro grams.

[10] = Liquid formulations with PEG 200, ethanol and water; concentrations by liquid chromatography; assay type: physicochemical; settings: liquid formulation comprising 4 mg/ml of sirolimus
Excerpt: In accordance with exemplary embodiments of the present invention, a series of liquid formulations were developed for the local or regional delivery of water insoluble compounds such as sirolimus and its analogs, including CCl-779, ABT-578 and everolimus, through weeping balloons and catheter injection needles. […] These liquid formulations increase the apparent solubility of the pharmacologically active but water insoluble compounds by two to four orders of magnitude as compared to the solubility limits of the compounds in water. These liquid formulations rely on the use of a very small amount of organic solvents such as Ethanol (typically less than two percent) and a larger amount of safe amphiphilic (of or relating to a molecule having a polar, water soluble group attached to a non-polar, water insoluble […]) excipients such as polyethylene glycol (PEG 200, PEG 400) and vitamin E TPGS to enhance the solubility of the compounds. These liquid formulations of highly water insoluble compounds are stable and readily flowable at room temperature. Certain excipients, such as Vitamin E TPGS and BHT may be utilized to enhance the storage stability of sirolimus compounds through their anti-oxidation properties. […]

CC(/C=C/C(=O)NO)=C\[C@@H](C)C(=O)c1ccc(N(C)C)cc1 [trichostatin A]
inhibition of human coronary artery smooth muscle cell proliferation [1]: completely inhibit
IC50 ([1]; read-out: anti-proliferative IC50): ~6 nM
anti-proliferative IC50's (tumor cell lines): low nM range

CC[C@@]1(O)C(=O)OCc2c1cc1n(c2=O)Cc2cc3c(CN(C)C)c(O)ccc3nc2-1 [topotecan]
effect of addition to cells treated with rapamycin ([2]; topotecan 18.8 to 300 nanomolar): increases the percent inhibition of rapamycin alone
cytotoxicity in a separate cell viability assay (cell viability; concentrations up to one micromolar): non-cytotoxic

Nc1nc(Cl)nc2c1ncn2[C@H]1C[C@H](O)[C@@H](CO)O1 [cladribine, 2-chlorodeoxyadenosine]
effect of addition to cells treated with rapamycin ([3]; cladribine 56.25 to 900 nanomolar): increases the percent inhibition of rapamycin alone
inhibition of human coronary artery smooth muscle cell proliferation ([3]; non-synchronized cells, two percent fetal bovine serum): completely inhibits
in vivo elution from PVDF/HFP (85/15) coating [4]: levels off significantly
in vivo elution from EVA/BMA basecoat with BMA topcoat relative to rapamycin [5]: elutes more rapidly than rapamycin

COc1c(C)c2c(c(O)c1C/C=C(\C)CCC(=O)O)C(=O)OC2 [mycophenolic acid]
effect of addition on the anti-proliferative rapamycin dose response curve [6]: potentiates the anti-proliferative activity of rapamycin
in vivo elution from EVA/BMA basecoat relative to co-loaded drug [7]: elutes more completely over a shorter duration than the rapamycin

COc1cc2c(cc1O)CC[C@@H]1[C@@H]2CC[C@]2(C)[C@@H](O)CC[C@@H]12 [Panzem®, 2-methoxyestradiol]
effect of addition to cells treated with rapamycin ([2]; Panzem 0.813 to 100 micromolar): increases the percent of inhibition of rapamycin alone
anti-proliferative activity (FIG. 66, 67) ([2]; in vitro, agent alone): extremely effective inhibitor
MTS assay: cell survival [8]: do not reduce human coronary artery smooth muscle cell survival

COc1cc([C@@H]2c3cc4c(cc3[C@@H](O[C@@H]3O[C@@H]5CO[C@@H](C)O[C@H]5[C@H](O)[C@H]3O)[C@H]3COC(=O)[C@H]23)OCO4)cc(OC)c1O [etoposide]
effect of addition to cells treated with rapamycin ([2]; etoposide 255.7 to eight-hundred nanomolar): increases the percent inhibition of rapamycin alone
cytotoxicity in a cell viability assay (cell viability; concentrations up to ten micromolar): non-cytotoxic

CO[C@H]1C[C@@H]2CC[C@@H](C)[C@@](O)(O2)C(=O)C(=O)N2CCCC[C@H]2C(=O)O[C@H]([C@H](C)C[C@@H]2CC[C@@H](O)[C@H](OC)C2)CC(=O)[C@H](C)/C=C(\C)[C@@H](O)[C@@H](OC)C(=O)[C@H](C)C[C@H](C)/C=C/C=C/C=C/1C [rapamycin]
in vivo release rate from PVDF basecoat with PVDF topcoat relative to co-loaded drug [9]: slower release rate than that of mycophenolic acid
concentration of sirolimus relative to the solubility of sirolimus in water [10]: four hundred to about one thousand
